Measured values: patent US6197535A, “Methods for purifying and assaying a conus γ-carboxylase” (University of Utah Research Foundation, priority 1999, dated 2001)
No end group written: not given here.

Legend:
Assay type in all cases: biochemical
[1] = tested on: Conus γ-glutamyl carboxylase (Conus radiatus venom duct microsomes); settings: for Km: read-out: apparent Km; for IC50: read-out: apparent IC50
[2] = target: T1, bovine microsomal γ-glutamyl carboxylase (Bos taurus, UniProt Q07175)
T1 construct: For experiments with bovine microsomes, 380 μg of microsomal protein was present in each reaction; from tissue; host or cells: bovine microsomes, gift of Dr. D. W. Stafford
T1 sequence (Q07175 1-758): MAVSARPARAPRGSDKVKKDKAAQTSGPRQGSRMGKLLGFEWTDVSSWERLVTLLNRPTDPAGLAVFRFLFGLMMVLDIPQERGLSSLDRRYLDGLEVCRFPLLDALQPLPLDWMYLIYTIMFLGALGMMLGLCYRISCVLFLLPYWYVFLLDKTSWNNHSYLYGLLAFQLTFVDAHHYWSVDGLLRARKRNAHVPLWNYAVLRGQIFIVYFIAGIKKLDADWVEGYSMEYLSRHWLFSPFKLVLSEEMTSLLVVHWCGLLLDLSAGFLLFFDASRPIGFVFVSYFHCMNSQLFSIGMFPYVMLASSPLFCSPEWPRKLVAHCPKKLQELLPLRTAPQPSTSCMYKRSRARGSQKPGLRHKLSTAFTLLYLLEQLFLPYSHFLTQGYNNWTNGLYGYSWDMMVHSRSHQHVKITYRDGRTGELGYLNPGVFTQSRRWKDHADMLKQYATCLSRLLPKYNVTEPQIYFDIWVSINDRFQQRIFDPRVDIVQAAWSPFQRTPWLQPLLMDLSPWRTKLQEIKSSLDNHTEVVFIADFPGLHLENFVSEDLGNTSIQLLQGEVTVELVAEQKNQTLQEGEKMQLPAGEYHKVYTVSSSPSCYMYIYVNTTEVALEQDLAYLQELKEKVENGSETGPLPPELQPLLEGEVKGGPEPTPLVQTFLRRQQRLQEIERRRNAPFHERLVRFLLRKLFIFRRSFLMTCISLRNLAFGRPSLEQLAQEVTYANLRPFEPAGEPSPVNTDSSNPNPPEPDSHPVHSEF

Conus γ-carboxylase = tested on: Conus γ-carboxylase

ILKQRGNKARGEEELQENQELIREKSN-NH2 [-10.Pro-E.Con-G]
Km [1]: 1840 ± 109 µM

ALKAEPVLLQKSAARSTDDN [Pro (-40 to -21)]
effect on the carboxylation of FLEEL or E.ConG [1]: no effect | inhibition of carboxylation of -10.Pro-E.Con-G [1]: did not inhibit | IC50 [1]: > 1000 µM

GKDRLTQMKRILKQRGNKARFLEEL-NH2 [-20.Pro-FLEEL]
Km [1]: 4 µM

KSAARSTDDNGKDRLTQMKRILKQRGNKAR [Pro (-30 to -1)]
IC50 [1]: 200 µM

GTGTLDDGGALTERRSADAT [Pro (-60 to -41)]
effect on the carboxylation of FLEEL or E.ConG [1]: no effect | inhibition of carboxylation of -10.Pro-E.Con-G [1]: did not inhibit | IC50 [1]: > 1000 µM

GKDRLTQMKRILKQRGNKARGEEELQENQELIREKSN-NH2 [-20.Pro-E.Con-G]
pmol 14CO2 Incorporated [2]: 3 pmol | substrate quality for γ-carboxylation, mammalian enzyme [2]: extremely poor | pmol 14CO2 Incorporated [1]: 2741 pmol | substrate quality for γ-carboxylation, Conus enzyme [1]: excellent substrate | Km [1]: 28 ± 3 µM | Glu residues carboxylated (Gla analysis of reaction product) (Conus γ-carboxylase): Glu2 was not carboxylated. The rest of the Glu residues were carboxylated, although Glu14 was not efficiently carboxylated

FLEEL [reference compound]
pmol 14CO2 Incorporated [2]: 249 pmol | pmol 14CO2 Incorporated [1]: 818 pmol | Km [1]: 301 ± 6 µM
